Series [1] has as its system panel of cell lines derived from various origins and tissues (cancer cell lines, non-cancerous cell lines, primary cells). Put plainly: Growth inhibition experiments (MTT, 5 d), panel of cell lines. It is filed as cell-based. As to conditions: for growth inhibitory activity in cell lines (in words, compared to chondramides A~C / other derivatives): GI50-based comparison, panel of cell lines. On the procedure: First, the compounds were tested on a small panel of cell lines derived from various origins and tissues. GI50 values were compared to those determined using chondramides A˜C (see Table 1).
(§1) Cell lines were obtained from the American Type Culture Collection (ATCC) and the German Collection of Microorganisms and Cell Cultures (Deutsche Sammlung für Mikroorganismen and Zellkulturen, DSMZ), and HUVEC (single donor) were purchased from PromoCell. Cells were cultured under the conditions recommended by the respective depositor in a standard humidified incubator at 37° C. with 5% CO2.
(§2) Cells were seeded at 6×10^3 cells per well of 96-well plates (Corning CellBind®) in 180 μl complete medium and directly treated with chondramides dissolved in methanol in a serial dilution. Each compound was tested in duplicate for 5 d, as well as the internal methanol control. After 5 d incubation, 20 μl of 5 mg/ml MTT (Mosmann, T. (1983). Rapid Colorimetric Assay for Cellular Growth and Survival: Application to Proliferation and Cytotoxicity Assays. J. Immunol. Meth. 65, 55-63) in PBS was added per well and it was further incubated for 2 h at 37° C. The medium was then discarded and cells were washed with 100 μl PBS before adding 100 μl 2-propanol/10 N HCl (250:1) in order to dissolve formazan granules. The absorbance at 570 nm was measured using a microplate reader (EL808, Bio-Tek Instruments Inc.), and cell viability was expressed as percentage relative to the respective methanol control. GI50 values were obtained by sigmoidal curve fitting. Testing of fractions was performed likewise using 1.2×10^4 cells per well. Samples were dissolved in cell culture medium and cells were treated for 2 d before adding MTT. Viability was expressed relative to the untreated control.
These compounds were profiled regarding their growth inhibitory potential in a panel of cancer cell lines. Natural chondramide A was used as reference:
Biological evaluation of group A derivatives. GI50 values [nM] were determined in a small panel of cancer cell lines.

Series [2] has as its system fibroblast cell line MRC5. Briefly: Growth inhibition experiments (MTT, 5 d), MRC5. Format: cell-based, human. As to conditions: Table 1. On the procedure:
(§3) With primary cells (HUVEC, human umbilical vein endothelial cells) and the fibroblast cell line MRC5 this is not the case. Whereas chondramides A˜C are comparably active on both, cancer and non-cancerous cells, brominated chondramide C3 analogs are on average by factor 2-4 less toxic for non-cancerous cells. Accordingly they show a higher selectivity.
as §2

In series [3] the test system is HUVEC, human umbilical vein endothelial cells (primary cells). Put plainly: Growth inhibition experiments (MTT, 5 d), HUVEC. It is filed as cell-based. The settings on record: Table 1.
Source text: as §3, §1, §2

The test system of a further series is L-929. Put plainly: Growth inhibition experiments (GI50), L-929. It is filed as cell-based. As to conditions: Table 1.
Series [4] relates to HCT-116 colon carcinoma cell line. Briefly: Growth inhibition experiments (MTT, 5 d), HCT-116. It is filed as cell-based, human. The settings on record: Table 1; HCT-116; read-out: GI50 values HCT-116. On the procedure: as §2
The test system of series [5] is KB-3.1: human cervical carcinoma. Put plainly: Growth inhibition experiments (GI50), KB-3.1. Format: cell-based. As to conditions: Table 1; KB-3.1.
Series [6] has as its system human U-2 OS osteosarcoma cell line. Put plainly: Growth inhibition experiments (MTT, 5 d), U-2 OS. Format: cell-based. The settings on record: Table 1; U-2 OS; read-out: GI50 values U-2 OS. On the procedure: as §2
Series [7] concerns multidrug resistant (MDR) KB-V.1 cell line. Briefly: Growth inhibition experiments (MTT, 5 d), KB-V.1. As to conditions: Table 1. Format: cell-based. On the procedure:
Cancer Inst. 90, 1559-1563). […] The same applies for most novel derivatives, solely a hydroxyl group at C2′ of the polyketide segment instead of methoxy or simply hydrogen leads to an approximately 10-fold reduced potency. GI50 values of glycosylated derivatives were not determinable precisely in the assay's concentration range.
as §2

Series [8] concerns the target T1, pyrene-labeled rabbit muscle actin (Oryctolagus cuniculus, UniProt P68135).
T1 construct: pyrene-labeled rabbit muscle actin; purchased Cytoskeleton, Inc; host or cells: rabbit muscle (tissue-derived; inferred from the name)
Briefly: Actin polymerization assay (pyrene actin fluorescence). Format: biochemical. The settings on record: 20 μM derivative, 5 μM pyrene actin, non-polymerizing buffer, followed over 85 min. On the procedure: A final concentration of 20 μM for each derivative was chosen and polymerization was followed over 85 min.
Fluorescence-based actin polymerization assays were performed using pyrene muscle actin (Cytoskeleton, Inc.) according to the supplier's protocol. Chondramides were dissolved in non-polymerizing buffer (5 mM Tris-HCl pH 8.0, 0.2 mM CaCl2, 0.2 mM ATP, 1 mM DTT) and mixed with pyrene actin diluted in the same buffer to give a final concentration of 20 μM chondramide and 5 μM actin. Samples were prepared in black, low-volume 384-well plates (Corning, NBS™ surface). The fluorescence at 405 nm (excitation at 360 nm) was scanned every 30 s for 85 min at 37° C. on a microplate reader (Spectramax M5^e, Molecular Devices). Experiments were performed in duplicates and the average relative fluorescence of polymerizing pyrene actin is given. Slopes were calculated in the linear range of kinetic measurements.

Molecules are shown by their SMILES. “Also recorded” adds a separate entry of the source.

In general, melting point refers to the temperature of the solid-liquid transition. The GI50 is the concentration that inhibits growth by half.

`C/C1=C\CCOC(=O)C[C@H](c2ccc(O)c(Cl)c2)NC(=O)[C@@H](Cc2c[nH]c3ccccc23)N(C)C(=O)[C@H](C)NC(=O)CC1` had a melting point of 122 to 126 °C.
In the case of `C/C1=C\CCOC(=O)C[C@H](c2ccc(O)c(Cl)c2)NC(=O)[C@@H](Cc2c(Cl)[nH]c3ccccc23)N(C)C(=O)[C@H](C)NC(=O)CC1`, the melting point lay in the range of 135 to 139 °C.
Still for that read-out and setting: for `C/C1=C\CCOC(=O)C[C@H](c2ccc(O)c(Br)c2)NC(=O)[C@@H](Cc2c[nH]c3ccccc23)N(C)C(=O)[C@H](C)NC(=O)CC1` the value was 129 to 132 °C.
As for `COC1C(=O)OC(C)C(C)C=C(C)CC(C)C(=O)NC(C)C(=O)N(C)C(Cc2c[nH]c3ccccc23)C(=O)NC1c1ccc(O)c(Br)c1` (centres unmarked) [Bromo-Chondramide A3], the “GI50 values on human cancer cell lines” value in [1] (human cancer cell lines, cell-based studies) is “low nanomolar range”. Further, the GI50 in [2] was 44.5 ± 4.9 nM; in [3], 32.7 ± 2.9 nM; in the series on L-929 it was 69.4 ± 1.5 nM; in series [4] it was 42.9 ± 3.2 nM; in series [6], 37.7 ± 2.8 nM. Also, in [5], the “GI50 values KB-3.1” value came out at 74.5 ± 14.2 nM. Besides, in [7], the “GI50 values KB-V.1” value was determined as 11.2 ± 0.4 nM. Besides, in series [8], the “actin-polymerizing effect (G-actin polymerization in vitro)” value (“actin-polymerizing effect” below) was “quickly polymerizes G-actin”.
Take `COC1C(=O)OC(C)C(C)C=C(C)CC(C)C(=O)NC(C)C(=O)N(C)C(Cc2c[nH]c3ccccc23)C(=O)NC1c1ccc(O)c(Cl)c1` (centres unmarked) [Chondramide A3]: the “growth inhibitory activity in cell lines (in words, compared to chondramides A~C / other derivatives)” value in series [1] is “comparable to chondramides A˜C”. For the same molecule, the GI50 in series [2] amounted to 38 ± 2.8 nM; in series [3], 50.5 ± 5.6 nM; in the series on L-929, 72.8 ± 3.6 nM; in series [4] it was 28.6 ± 3.9 nM; in series [6], 46.7 ± 6.5 nM. In addition, the “GI50 values KB-3.1” value in series [5] came to 63.5 ± 12.6 nM. Also, in series [7], the “GI50 values KB-V.1” value is given as 85.7 ± 1.4 nM. Moreover, the “actin-polymerizing effect” value in [8] is “significantly reduced actin-polymerizing effect”.
With `COC1C(=O)OC(C)C(C)C=C(C)CC(C)C(=O)NC(C)C(=O)N(C)C(Cc2c(Cl)[nH]c3ccccc23)C(=O)NC1c1ccc(OP(=O)(O)O)cc1` (centres unmarked) [Chondramide A6], the “growth inhibitory activity in cell lines (in words, compared to chondramides A~C / other derivatives)” value in [1] is on record as “comparable to chondramides A˜C”. In addition, the GI50 in [2] turned out to be 25.9 ± 1.5 nM; in series [3], 67.7 ± 10.4 nM; in the series with L-929, 44.6 ± 5.5 nM; in series [4], 60.9 ± 3.5 nM; in [6], 51.6 ± 4.6 nM. In addition, the “GI50 values KB-3.1” value in series [5] was determined as 49.3 ± 7.6 nM. For the same molecule, the “GI50 values KB-V.1” value in series [7] came to 23.1 ± 1.5 nM. For the same molecule, the “actin-polymerizing effect” value in series [8] is reported as “significantly reduced actin-polymerizing effect”.
In the case of `COC1C(=O)OC(C)C(C)C=C(C)CC(C)C(=O)NC(C)C(=O)N(C)C(Cc2c(Cl)[nH]c3ccccc23)C(=O)NC1c1ccc(OP(=O)(O)O)c(Cl)c1` (centres unmarked) [Chondramide A8], the “growth inhibitory activity in cell lines (in words, compared to chondramides A~C / other derivatives)” value in series [1] is reported as “comparable to chondramides A˜C”. In addition, the GI50 was found to be 7.6 ± 4.7 nM in series [2]; 24.1 ± 7.9 nM in series [3]; 56.2 ± 12.5 nM with L-929; 49.3 ± 7.6 nM in series [4]; 33.2 ± 3.4 nM in series [6]. Besides, the “GI50 values KB-3.1” value in series [5] stood at 13.4 ± 3.0 nM. In addition, the “GI50 values KB-V.1” value in [7] stood at 58.1 ± 4.0 nM. Further, in [8], the “actin-polymerizing effect” value was “significantly reduced actin-polymerizing effect”.
`COC1C(=O)OC(C)C(C)C=C(C)CC(C)C(=O)NC(C)C(=O)N(C)C(Cc2c[nH]c3ccccc23)C(=O)NC1c1ccc(OC2OC(C(=O)O)C(O)C(O)C2O)c(Cl)c1` (centres unmarked) [Chondramide A9]: the “growth inhibitory activity in cell lines (in words, compared to chondramides A~C / other derivatives)” value in series [1] is reported as “significantly reduced”. Besides, the “GI50 values L-929” value with L-929 is “w.a”. Besides, in [7], the “GI50 values KB-V.1” value is on record as “w.a”. The “actin-polymerizing effect” value in series [8] was “does not show any actin-polymerizing effect”.
Turning to `COC1C(=O)OC(C)C(C)C=C(C)CC(C)C(=O)NC(C)C(=O)N(C)C(Cc2c(Cl)[nH]c3ccccc23)C(=O)NC1c1ccc(OC2OC(C(=O)O)C(O)C(O)C2O)c(Cl)c1` (centres unmarked) [Chondramide A10], the “growth inhibitory activity in cell lines (in words, compared to chondramides A~C / other derivatives)” value in series [1] is “significantly reduced”. In series [3], the “GI50 values HUVEC” value was “w.a”. Further, the “GI50 values KB-3.1” value in series [5] was “w.a”. In [7], the “GI50 values KB-V.1” value is reported as “w.a”. The “actin-polymerizing effect” value in series [8] is “slow increase in G-actin polymerization; also recorded: partly restore the ability to polymerize actin”.
With `CC1=CC(C)C(C)OC(=O)C(O)C(c2ccc(O)c(Cl)c2)NC(=O)C(Cc2c(Cl)[nH]c3ccccc23)N(C)C(=O)C(C)NC(=O)C(C)C1` (centres unmarked) [Chondramide E4], the concentration for 50% growth inhibition (GI50) stood at 480 ± 63.6 nM in series [2]; 207 ± 26.4 nM in [3]; 555 ± 81.6 nM in the series on L-929; 379 ± 30.2 nM in [4]; 352 ± 30.6 nM in [6]. Also, the “GI50 values KB-3.1” value in [5] is reported as 627.2 ± 122.5 nM. Further, the “GI50 values KB-V.1” value in series [7] is recorded as 251.5 ± 79.1 nM. For the same molecule, the “actin-polymerizing effect” value in [8] is “decreased ability to polymerize actin”.
As for `CCC1OC(=O)CC(c2ccc(O)cc2)NC(=O)C(Cc2c[nH]c3ccccc23)N(C)C(=O)C(C)NC(=O)C(C)CC(C)=CC1C` (centres unmarked) [Propionyl-Chondramide C1], the “growth inhibitory activity in cell lines (in words, compared to chondramides A~C / other derivatives)” value in series [1] is “comparable to chondramides A˜C”. The GI50 in series [2] stood at 71.9 ± 4.1 nM; in series [3], 54.6 ± 5.5 nM; with L-929, 30 ± 7.7 nM; in [4] it was 42.1 ± 3.2 nM; in series [6] it was 15.1 ± 1.1 nM. Also, the “GI50 values KB-3.1” value in [5] is listed as 56.3 ± 9.6 nM. The “GI50 values KB-V.1” value in [7] was 22.7 ± 8.3 nM. For the same molecule, in series [8], the “actin-polymerizing effect” value was “significantly reduced actin-polymerizing effect”.
